Test results: patent US20240279205A1, “NOVEL BENZIMIDAZOLE DERIVATIVE” (Carna Biosciences, Inc., priority 2020, published 2024)

Molecular target: T1, human STING (hSTING) (Homo sapiens, UniProt Q86WV6)
T1 construct: host or cells: HEK-Blue ISG cells (HEK293-derived SEAP reporter line)
Assay: Inhibition test of intracellular human STING (hSTING) pathway using SEAP reporter cells (HEK-Blue ISG), stimulation with Compound 3
Format: cell-based
Design: hSTING inhibitory activity: scale not given here
Settings: Compound 3 10 nM stimulation, 21 hours; for IC50: read-out: hSTING inhibitory activity
Method in brief: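 HEK-Blue ISG cells with IRF-inducible SEAP reporter, pretreated 1 h with compound (final 0.1 to 10 μM), then stimulated with Compound 3 (final 10 nM) for 21 h at 37° C. Supernatant SEAP measured colorimetrically; IC50 from log-concentration regression, normalized to stimulated (100%) and unstimulated (0%) controls.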

T1 sequence (Q86WV6 whole entry H232R): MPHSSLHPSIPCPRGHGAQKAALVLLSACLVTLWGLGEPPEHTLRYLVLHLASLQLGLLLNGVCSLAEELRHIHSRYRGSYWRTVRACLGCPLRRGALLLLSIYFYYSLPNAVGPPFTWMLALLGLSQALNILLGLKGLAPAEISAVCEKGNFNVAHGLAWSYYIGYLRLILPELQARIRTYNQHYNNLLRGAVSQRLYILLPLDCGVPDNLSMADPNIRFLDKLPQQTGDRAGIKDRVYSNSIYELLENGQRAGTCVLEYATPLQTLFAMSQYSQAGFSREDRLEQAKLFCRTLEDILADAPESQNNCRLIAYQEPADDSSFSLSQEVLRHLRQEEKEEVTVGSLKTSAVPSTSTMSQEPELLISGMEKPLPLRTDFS

hSTING inhibitory activity	IC50 [µM]	SMILES
* *	–	Cc1ccc2[nH]c(Nc3c[nH]c4ccc(Cl)nc34)nc2c1C [Embodiment 85, N-(5-Chloro-1H-pyrrolo[3,2-b]pyridin-3-yl)-4,5-dimethyl-1H-benzo[d]imidazol-2-amine]
* *	–	C[C@H](O)Cn1c(Nc2c[nH]c3ccc(Cl)cc23)nc2cc(C(F)(F)F)ccc21 [Embodiment 243, (S)-1-{2-[(5-chloro-1H-indol-3-yl)amino]-5-(trifluoromethyl)-1H-benzo[d]imidazol-1-yl}propan-2-oar]
–	≥ 10	Clc1ccc2[nH]cc(Nc3nc4c(C5CCOCC5)cccc4[nH]3)c2n1 [Embodiment 150, N-(5-chloro-1H-pyrrolo[3,2-b]pyridin-3-yl)-4-(tetrahydro-2H-pyran-4-yl)-1H-benzo[d]imidazole-2-amine]
* *	–	Cn1c(Nc2c[nH]c3ccc(Br)cc23)nc2ccc(Oc3ccccc3)cc21 [Embodiment 39, N-(5-bromo-1H-indol-3-yl)-1-methyl-6-phenoxy-1H-benzo[d]imidazol-2-amine]
–	≥ 10	Cn1cc(-c2ccc3[nH]c(Nc4c[nH]c5ccc(Cl)nc45)nc3c2)cn1 [Embodiment 102, N-(5-chloro-1H-pyrrolo[3,2-b]pyridin-3-yl)-5-(1-methyl-1H-pyrazol-4-yl)-1H-benzo[d]imidazole-2-amine]
–	≥ 10	Cc1ccc2nc(Nc3c[nH]c4ccc(Cl)nc34)n(C)c2c1 [Embodiment 152, N-(5-Chloro-1H-pyrrolo[3,2-b]pyridin-3-yl)-1,6-dimethyl-1H-benzo [d]imidazol-2-amine]
–	≥ 10	COCCn1c(Nc2c[nH]c3ccc(Cl)nc23)nc2ccc(Oc3cccnc3)cc21 [Embodiment 207, N-(5-Chloro-1H-pyrrolo[3,2-b]pyridin-3-yl)-1-(2-methylxhetyl)-6-(pyridin-3-yloxy)-1H-benzo[d] imidazol-2-amine]
–	1 to 10	C=Cc1ccc2[nH]cc(Nc3nc4cc(C(F)(F)F)ccc4n3C)c2n1 [Embodiment 171, 1-methyl-5-(trifluoromethyl)-N-(5-vinyl-1H-pyrrolo[3,2-b]pyridin-3-yl)-1H-benzo[d]imidazol-2-amine]
* * *	–	Cn1c(Nc2c[nH]c3ccc(Br)nc23)nc2ccc(Oc3ccccc3)cc21 [Embodiment 40, N-(5-bromo-1H-pyrrolo[3,2-b]pyridin-3-yl)-1-methyl-6-phenoxy-1H-benzo[d]imidazol-2-amine]
–	≥ 10	Brc1cnc2[nH]cc(Nc3nc4cc(Oc5ccccc5)ccc4[nH]3)c2n1 [Example 21, 2-bromo-N-(5-phenoxy-1H-benzo[d]imidazol-2-yl)-5H-pyrrolo[2,3-b]pyrazin-7-amine]
–	≥ 10	O=C(O)c1ccc2[nH]cc(Nc3nc4cc(Oc5ccccc5)ccc4[nH]3)c2c1 [Example 27, 3-[(5-phenoxy-1H-benzo[d]imidazol-2-yl)amino]-1H-indole-5-carboxylic acid]
* *	–	CN(C)c1cccc(Oc2ccc3[nH]c(Nc4c[nH]c5ccc(Br)nc45)nc3c2)c1 [Embodiment 65, N-(5-bromo-1H-pyrrolo[3,2-b]pyridin-3-yl)-5-[3-(dimethylamino)phenoxy]-1H-benzo[d]imidazol-2-amine]
–	≥ 10	Cn1c(Nc2c[nH]c3ccc(Cl)nc23)nc2cc(F)cc(F)c21 [Embodiment 204, N-(5-Chloro-1H-pyrrolo[3,2-b]pyridin-3-yl)-5,7-difluoro-1-methyl-1H-benzo[d]imidazol-2-amine]
–	1 to 10	CS(=O)(=O)CCn1c(Nc2c[nH]c3ccc(Cl)cc23)nc2cc(C(F)(F)F)ccc21 [Embodiment 230, N-(5-Chloro-1H-indol-3-yl)-1-[2-(methylsulfonyl)ethyl]-5-(trifluoromethyl)-1H-benzo[d] imidazol-2-amine]
–	≥ 10	COCCOc1cc2nc(Nc3c[nH]c4ccc(Cl)nc34)[nH]c2cc1OCCOC [Embodiment 143, N-(5-Chloro-1H-pyrrolo[3,2-b]pyridin-3-yl)-5,6-bis(2-methoxyethoxy)-1H-benzo[d]imidazol-2-amine]
–	1 to 10	CS(=O)(=O)c1ccc(Oc2ccc3[nH]c(Nc4c[nH]c5ccc(Br)nc45)nc3c2)cc1 [Embodiment 66, N-(5-bromo-1H-pyrrolo[3,2-b]pyridin-3-yl)-5-[4-(methylsulfonyl)phenoxy]-1H-benzo[d]imidazol-2-amine]
* *	–	Brc1ccc2[nH]cc(Nc3nc4c(-c5ccccc5)cccc4[nH]3)c2n1 [Embodiment 62, N-(5-bromo-1H-pyrrolo[3,2-b]pyridin-3-yl)-4-phenyl-1H-benzo [d]imidazol-2-amine]

hSTING inhibitory activity	IC50 [µM]	SMILES
* * *	–	Cn1c(Nc2c[nH]c3ccc(Cl)cc23)nc2cc(C(F)(F)F)c(F)c(F)c21 [Embodiment 274, N-(5-Chloro-1H-indol-3-yl)-6,7-difluoro-1-methyl-5-(trifluoromethyl)-1H-benzo[d]imidazol-2-amine]
* *	–	ClC(=CC1CC1)c1ccc2[nH]c(Nc3c[nH]c4ccc(Cl)nc34)nc2c1 [Embodiment 126, N-(5-chloro-1H-pyrrolo[3,2-b]pyridin-3-yl)-5-(1-chloro-2-cyclopropylvinyl)-1H-benzo[d] imidazole-2-amine]
–	≥ 10	COCCn1c(Nc2c[nH]c3ccc(Cl)nc23)nc2c(F)cc(F)cc21 [Embodiment 202, N-(5-chloro-1H-pyrrolo[3,2-b]pyridin-3-yl)-4,6-difluoro-1-(2-methoxyethyl)-1H-benzo[d]imidazole-2-amine]
–	1 to 10	Clc1ccc2[nH]cc(Nc3nc4cc5c(cc4[nH]3)OCCO5)c2n1 [Embodiment 141, N-(5-chloro-1H-pyrrolo[3,2-b]pyridin-3-yl)-6,7-dihydro-1H-[1,4] dioxino[2′,3′:4, 5]benzo[1,2-d]imidazol-2-amine]
–	≥ 10	Cc1ccc2c(c1)nc(Nc1c[nH]c3ccc(Cl)nc13)n2C [Embodiment 156, N-(5-Chloro-1H-pyrrolo[3,2-b]pyridin-3-yl)-1,5-dimethyl-1H-benzo [d]imidazol-2-amine]
* *	–	C1=C(c2ccnc3c(Nc4nc5cc(Oc6ccccc6)ccc5[nH]4)c[nH]c23)CCCC1 [Embodiment 162, N-[7-(Cyclohex-1-en-1-yl)-1H-pyrrolo[3,2-b]pyridin-3-yl]-5-phenoxy-1H-benzo[d]imidazole-2-amine]
* *	–	Brc1cnc2[nH]cc(Nc3nc4cc(Oc5ccccc5)ccc4[nH]3)c2c1 [Example 10, N-(5-bromo-1H-pyrrolo[2,3-b]pyridin-3-yl)-5-phenoxy-1H-benzo[d]imidazol-2-amine]
–	1 to 10	Brc1cnc2c(Nc3nc4cc(Oc5ccccc5)ccc4[nH]3)c[nH]c2c1 [Embodiment 49, N-(6-bromo-1H-pyrrolo[3,2-b]pyridin-3-yl)-5-phenoxy-1H-benzo[d]imidazol-2-amine]
–	≥ 10	COCCn1c(Nc2c[nH]c3ccc(Cl)nc23)nc2c(F)c(F)ccc21 [Embodiment 200, N-(5-chloro-1H-pyrrolo[3,2-b]pyridin-3-yl)-4,5-difluoro-1-(2-methoxyethyl)-1H-benzo[d] imidazole-2-amine]
–	≥ 10	Brc1cccc2c(Nc3nc4ccccc4[nH]3)c[nH]c12 [Example 17, N-(7-bromo-1H-indol-3-yl)-1H-benzo[d]imidazol-2-amine]
* * *	–	CNn1c(Nc2c[nH]c3ccc(Cl)cc23)nc2cc(C(F)(F)F)cc(F)c21 [Embodiment 271, N2-(5-Chloro-1H-indol-3-yl)-7-fluoro-N1-methyl-5-(trifluoromethyl)-1H-benzo[d]imidazole-1,2-diamine]
–	≥ 10	Clc1ccc2[nH]cc(Nc3nc4cc(OC5COC5)ccc4[nH]3)c2n1 [Embodiment 139, N-(5-Chloro-1H-pyrrolo[3,2-b]pyridin-3-yl)-5-(oxetan-3-yloxy)-1H-benzo[d]imidazol-2-amine]
–	≥ 10	CN(C)C(=O)c1cccc2[nH]c(Nc3c[nH]c4ccc(Cl)nc34)nc12 [Embodiment 166, 2-[(5-Chloro-1H-pyrrolo[3,2-b]pyridin-3-yl)amino]-N,N-dimethyl-1H-benzo[d]imidazole-4-carboxamide]
* *	–	CN(C)n1c(Nc2c[nH]c3ccc(F)c(F)c23)nc2cc(C(F)(F)F)cc(F)c21 [Embodiment 278, N2-(4,5-difluoro-1H-indol-3-yl)-7-fluoro-N1,N1-dimethyl-5-(trifluoromethyl)-1H-benzo[d] imidazole-1,2-diamine]
–	1 to 10	FC(F)(F)c1ccc2c(c1)nc(Nc1c[nH]c3ccc(Cl)cc13)n2N1CCOCC1 [Embodiment 235, N-(5-Chloro-1H-indol-3-yl)-1-morpholino-5-(trifluoromethyl)-1H-benzo[d]imidazol-2-amine]
* *	–	O=C(Nc1ccccc1)c1ccc2[nH]cc(Nc3nc4cc(Oc5ccccc5)ccc4[nH]3)c2c1 [Example 30, 3-[(5-phenoxy-1H-benzo[d]imidazol-2-yl)amino]-N-phenyl-1H-indole-5-carboxamide]
